Test results: US10980727B2, “Mixtures containing (E)-3-benzo[1,3]dioxol-5-yl-N,N-diphenyl-2-propenamide” (SYMRISE AG, priority 2016, dated 2021)

Experiments:
Format in all cases: physicochemical
[1] = Solubility of BDDPA in different solvents at room temperature
Experimental: The solubility of (E)-3-benzo[1,3]dioxol-5-yl-N,N-diphenyl-2-propenamide (BDDPA) in different solvents was tested.
(§1) The amount of solvent added to the amount of (E)-3-benzo[1,3]dioxol-5-yl-N,N-diphenyl-2-propenamide is added up to 100 wt.-% in each mixture (1 to 18). Thus the composition of mixture 1 is 99 wt.-% ethanol, 1 wt.-% BDDPA.

[2] = Stability of the mixtures on storage at 5° C.; details: mixtures of table 2
Experimental: Several of the mixtures of example 1 were stored at night at 5 C to observe the stability.
as §1

[3] = Solubility of BDDPA in binary and ternary solvent systems at 23° C. and 90° C.
Experimental: The solubility of (E)-3-benzo[1,3]dioxol-5-yl-N,N-diphenyl-2-propenamide (BDDPA) in different solvent combinations was tested.
The amount of solvents 1 to 3 add up to 100 wt.-% with the amount of (E)-3-benzo[1,3]dioxol-5-yl-N,N-diphenyl-2-propenamide. Thus the composition of mixture 19 is 5 wt.-% BDDPA, 47.5 wt.-% triacetin and 47.5 wt.-% peppermint oil.

BDDPA dissolved in the respective solvents at room temperature ([1]; 23° C., solvents of table 1): completely dissolved
Temperature at which BDDPA dissolves in the solvents of table 1 ([1]; where necessary by means of ultrasonification): ≤ 65 °C
Recrystallization on storage over night below room temperature [2]: no recrystallization occurs
BDDPA dissolved in binary and ternary solvent combinations at room temperature ([3]; 23° C.): completely dissolved
BDDPA dissolved in binary and ternary solvent combinations at high temperature ([3]; 90° C.): remains stably dissolved
Structure (SMILES): O=C(/C=C/c1ccc2c(c1)OCO2)N(c1ccccc1)c1ccccc1 [BDDPA, (E)-3-benzo[1,3]dioxol-5-yl-N,N-diphenyl-2-propenamide]
